From patent US7601716B2, “Pyridopyrazines and derivatives thereof as ALK and c-Met inhibitors” (Cephalon, Inc., priority 2006, dated 2009)

What was measured:
[1] = target: T1, c-Met (cytoplasmic domain) (Homo sapiens, UniProt P08581); test: c-Met Kinase Assay (ELISA/TRF, PLC-γ substrate); type: biochemical; conditions: 3 μM ATP (Km level); read-out: c-Met Kinase Inhibition (IC50)
T1 construct: Reactions were initiated with 30 ng/mL c-Met (cytoplasmic domain, Invitrogen Corporation #PV3143); purchased Invitrogen Corporation PV3143
T1 sequence (P08581 956-1390 limits assumed): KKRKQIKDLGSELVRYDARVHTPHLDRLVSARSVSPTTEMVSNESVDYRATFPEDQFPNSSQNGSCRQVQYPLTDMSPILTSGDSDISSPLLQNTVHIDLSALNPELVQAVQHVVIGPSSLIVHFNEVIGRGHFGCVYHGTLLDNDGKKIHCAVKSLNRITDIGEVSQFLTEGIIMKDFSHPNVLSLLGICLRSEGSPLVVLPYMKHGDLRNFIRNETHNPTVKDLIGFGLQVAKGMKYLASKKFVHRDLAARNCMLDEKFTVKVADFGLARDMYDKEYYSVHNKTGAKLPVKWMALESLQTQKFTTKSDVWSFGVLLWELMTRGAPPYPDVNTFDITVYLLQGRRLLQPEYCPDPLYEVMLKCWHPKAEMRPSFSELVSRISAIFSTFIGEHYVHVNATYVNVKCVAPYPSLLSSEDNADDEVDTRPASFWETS
How it was run: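 Readout is TRF of europium anti-phosphotyrosine (PT66) bound to GST–PLC-γ substrate coated at 10 μg/mL, after a 15 min, 37 °C reaction started with 30 ng/mL c-Met cytoplasmic domain. Percent inhibition plotted against log compound concentration and fitted (variable slope) for IC50.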

[2] = target: baculovirus-expressed ALK (Homo sapiens, UniProt Q9UM73); test: ALK Kinase Assay (ELISA/TRF, PLC-γ substrate); type: biochemical; conditions: read-out: ALK Kinase Inhibition (IC50); also: 1 µM ATP (Km level)
Sequence of baculovirus-expressed ALK (Q9UM73 19-1620): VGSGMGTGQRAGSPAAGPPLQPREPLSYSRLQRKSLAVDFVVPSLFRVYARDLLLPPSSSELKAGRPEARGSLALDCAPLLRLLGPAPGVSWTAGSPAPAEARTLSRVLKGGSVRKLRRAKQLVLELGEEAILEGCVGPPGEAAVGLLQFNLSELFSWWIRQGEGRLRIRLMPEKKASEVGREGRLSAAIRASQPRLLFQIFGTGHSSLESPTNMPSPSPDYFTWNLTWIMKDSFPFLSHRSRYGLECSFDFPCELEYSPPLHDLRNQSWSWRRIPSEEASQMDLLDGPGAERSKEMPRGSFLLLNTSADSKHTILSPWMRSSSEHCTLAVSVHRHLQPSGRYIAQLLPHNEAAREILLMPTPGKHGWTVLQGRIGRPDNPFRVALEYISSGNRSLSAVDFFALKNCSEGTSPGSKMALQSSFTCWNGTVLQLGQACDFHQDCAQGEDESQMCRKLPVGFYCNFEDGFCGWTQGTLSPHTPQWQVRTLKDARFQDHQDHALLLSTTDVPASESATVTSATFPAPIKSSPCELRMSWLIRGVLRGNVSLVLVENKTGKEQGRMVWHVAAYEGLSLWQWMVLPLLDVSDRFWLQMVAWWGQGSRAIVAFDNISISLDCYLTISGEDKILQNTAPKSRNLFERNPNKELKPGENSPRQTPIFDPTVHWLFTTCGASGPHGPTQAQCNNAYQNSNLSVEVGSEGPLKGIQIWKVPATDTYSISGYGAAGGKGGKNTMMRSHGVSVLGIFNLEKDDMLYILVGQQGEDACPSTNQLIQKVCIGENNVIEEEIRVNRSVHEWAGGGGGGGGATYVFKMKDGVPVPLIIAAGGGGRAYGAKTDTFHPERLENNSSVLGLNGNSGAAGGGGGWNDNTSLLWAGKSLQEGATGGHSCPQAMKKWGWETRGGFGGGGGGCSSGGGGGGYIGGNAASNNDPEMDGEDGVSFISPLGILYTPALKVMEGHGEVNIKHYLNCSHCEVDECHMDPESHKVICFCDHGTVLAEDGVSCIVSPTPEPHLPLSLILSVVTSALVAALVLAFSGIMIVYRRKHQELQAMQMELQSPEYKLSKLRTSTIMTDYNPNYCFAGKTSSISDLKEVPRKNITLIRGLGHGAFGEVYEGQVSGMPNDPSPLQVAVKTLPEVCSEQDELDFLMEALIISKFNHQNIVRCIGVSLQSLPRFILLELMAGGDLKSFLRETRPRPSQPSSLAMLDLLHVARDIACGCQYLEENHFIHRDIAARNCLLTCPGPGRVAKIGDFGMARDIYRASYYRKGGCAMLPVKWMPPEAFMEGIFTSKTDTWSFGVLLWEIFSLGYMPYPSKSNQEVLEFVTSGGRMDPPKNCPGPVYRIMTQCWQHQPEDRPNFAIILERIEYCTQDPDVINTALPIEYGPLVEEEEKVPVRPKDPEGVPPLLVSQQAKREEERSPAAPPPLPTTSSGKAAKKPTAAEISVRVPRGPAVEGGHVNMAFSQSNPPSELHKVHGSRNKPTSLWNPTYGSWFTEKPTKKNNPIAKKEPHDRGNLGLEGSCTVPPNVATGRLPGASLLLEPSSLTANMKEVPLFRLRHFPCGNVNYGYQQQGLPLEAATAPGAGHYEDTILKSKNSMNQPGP
How it was run: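 Substrate phosphorylation by 30 ng/ml ALK (37° C, 15 min) on PLC-γ-coated wells is quantified via time-resolved europium fluorescence from an anti-phosphotyrosine antibody. Percent inhibition against log10 compound concentration yields IC50 by nonlinear regression.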

| IC50 [1] [µM] | IC50 [2] [µM] | melting point | SMILES |
| --- | --- | --- | --- |
| 10 to 100 | > 100 | 219 to 220 °C | O=C(c1ccccc1)N1CCNc2ncc(-c3cccnc3)cc21 [Example 43, Phenyl-(7-pyridin-3-yl-3,4-dihydro-2H-pyrido[2,3-b]pyrazin-1-yl)methanone] |
| > 100 | 0.1 to 1 | > 200 °C | Clc1ccc(Cl)c(CN2CCNc3ncc(-c4ccc(N5CCCC5)nc4)cc32)c1 [Example 166, 1-(2,5-Dichlorobenzyl)-7-(6-pyrrolidin-1-yl-pyridin-3-yl)-1,2,3,4-tetrahydropyrido[2,3-b]pyrazine] |
| > 100 | > 100 | > 200 °C | CCOC(=O)c1ccc(-c2cnc3c(c2)NC(=O)CN3)cc1 [Example 135, 4-(2-Oxo-1,2,3,4-tetrahydropyrido[2,3-b]pyrazin-7-yl)benzoic acid ethyl ester] |
| 10 to 100 | 1 to 10 | 92 to 95 °C | CC(C)(C)OC(=O)N1CC=C(c2cnc3c(c2)N(Cc2cc(Cl)ccc2Cl)CCN3)CC1 [Example 130, 4-[1-(2,5-Dichlorobenzyl)-1,2,3,4-tetrahydropyrido[2,3-b]pyrazin-7-yl]-3,6-dihydro-2H-pyridine-1-carboxylic acid tert-butyl ester] |
| 10 to 100 | 0.1 to 1 | 124 to 125 °C | CCOC(=O)c1cnc2c(c1)N(Cc1cc(F)ccc1F)CCN2 [Example 75, 1-(2,5-Difluorobenzyl)-1,2,3,4-tetrahydropyrido[2,3-b]pyrazine-7-carboxylic acid ethyl ester] |
| 10 to 100 | > 100 | 273 °C (dec.) | O=C(O)c1cnc2c(c1)N(Cc1cc(Cl)ccc1Cl)CCN2 [Example 128, 1-(2,5-Dichlorobenzyl)-1,2,3,4-tetrahydropyrido[2,3-b]pyrazine-7-carboxylic acid] |
| > 100 | 1 to 10 | 244 °C | CC(=O)Nc1ccc(-c2cnc3c(c2)N(Cc2cc(Cl)ccc2C(F)(F)F)CCN3)cc1 [Example 304, N-(4-{1-[5-Chloro-2-(trifluoromethyl)benzyl]-1,2,3,4-tetrahydropyrido[2,3-b]pyrazin-7-yl}phenyl)acetamide] |
| > 100 | > 100 | 164 to 166 °C | O=C(c1ccccc1)N1CCNc2ncc(I)cc21 [Example 42, (7-Iodo-3,4-dihydro-2H-pyrido[2,3-b]pyrazin-1-yl)phenylmethanone] |
| 1 to 10 | 0.1 to 1 | 164 to 165 °C | CN1CCN(c2ccc(-c3cnc4c(c3)N(S(=O)(=O)c3ccccc3Cl)CCN4)cn2)CC1 [Example 126, 1-(2-Chlorobenzenesulfonyl)-7-[6-(4-methylpiperazin-1-yl)pyridin-3-yl]-1,2,3,4 tetrahydropyrido[2,3-b]pyrazine] |
| 0.1 to 1 | 0.1 to 1 | 199 °C | O=C(c1ccc(-c2cnc3c(c2)N(Cc2c(Cl)cccc2Cl)C(=O)CN3)cc1)N1CCC(N2CCCC2)CC1 [Example 161, 1-(2,6-Dichlorobenzyl)-7-[4-(4-(pyrrolidin-1-yl)piperidine-1-carbonyl)phenyl]-3,4-dihydro-1H-pyrido[2,3-b]pyrazin-2-one] |
| 10 to 100 | > 100 | 94 °C | CN(C)CCCNC(=O)c1ccc(-c2cnc3c(c2)N(C(=O)c2ccccc2)CCN3)cc1 [Example 53, 4-(1-Benzoyl-1,2,3,4-tetrahydropyrido[2,3-b]pyrazin-7-yl)-N-(3-dimethylamino-propyl)benzamide] |
| > 100 | > 100 | 125 to 128 °C | OC1CCNc2ncc(Br)cc21 (stereo not drawn) [Example 268, 6-bromo-1,2,3,4-tetrahydro-[1,8]naphthyridin-4-ol] |
| > 100 | 1 to 10 | 178 to 179 °C | CCOC(=O)c1ccc(-c2cnc3c(c2)N(Cc2ccccc2)CCN3)cc1 [Example 35, 4-(1-Benzyl-1,2,3,4-tetrahydropyrido[2,3-b]pyrazin-7-yl)benzoic acid ethyl ester] |
| 10 to 100 | 0.1 to 1 | > 300 °C | O=C(O)c1ccc(-c2cnc3c(c2)N(Cc2cc(F)ccc2F)CCN3)cc1 [Example 64, 4-[1-(2,5-Difluorobenzyl)-1,2,3,4-tetrahydropyrido[2,3-b]pyrazin-7-yl]benzoic acid] |

Continued, molecule first:

| SMILES | IC50 [1] [µM] | IC50 [2] [µM] | melting point |
| --- | --- | --- | --- |
| Fc1ccc(F)c(/C=C2/CCNc3nc(Br)ccc32)c1 [Example 283, 7-Bromo-4-[1-(2,5-difluorophenyl)methylidene]-1,2,3,4-tetrahydro-[1,8]naphthyridine] | > 100 | > 100 | 178 to 179 °C |
| NC(=O)c1ccc(-c2cnc3c(c2)N(Cc2ccccc2)C(=O)CN3)cc1 [Example 23, 4-(1-Benzyl-2-oxo-1,2,3,4-tetrahydropyrido[2,3-b]pyrazin-7-yl)benzamide] | 10 to 100 | 1 to 10 | > 200 °C |
| FC(F)(F)c1ccc(Cl)cc1CN1CCNc2ncc(I)cc21 [Example 115, 1-(5-Chloro-2-trifluoromethylbenzyl)-7-iodo-1,2,3,4-tetrahydropyrido[2,3-b]pyrazine] | > 100 | 1 to 10 | 189 to 191 °C |
| CN1CCN(C(=O)c2ccc(-c3cnc4c(c3)N(Cc3cc(F)ccc3F)C(=O)C(C)(C)N4)cc2)CC1 [Example 95, 1-(2,5-Difluorobenzyl)-3,3-dimethyl-7-[4-(4-methylpiperazine-1-carbonyl)phenyl]-3,4-dihydro-1H-pyrido[2,3-b]pyrazin-2-one] | 10 to 100 | 1 to 10 | 204 to 206 °C |
| Clc1ccc(Cl)c(CN2CCNc3ncc(-c4ccc(Cl)nc4)cc32)c1 [Example 165, 7-(6-Chloropyridin-3-yl)-1-(2,5-dichlorobenzyl)-1,2,3,4-tetrahydropyrido[2,3-b]pyrazine] | > 100 | 0.1 to 1 | 205 °C |
| O=C(O)c1ccc(-c2cnc3c(c2)N(Cc2ccccc2)C(=O)CN3)cc1 [Example 10, 4-(1-Benzyl-2-oxo-1,2,3,4-tetrahydropyrido[2,3-b]pyrazin-7-yl)benzoic acid] | > 100 | 10 to 100 | > 200 °C |
| CN1CCN(C(=O)c2ccc(-c3cnc4c(c3)N(Cc3cc(F)c(F)cc3F)C(=O)CN4)cc2)CC1 [Example 85, 7-[4-(4-Methylpiperazine-1-carbonyl)phenyl]-1-(2,4,5-trifluorobenzyl)-3,4-dihydro-1H-pyrido[2,3-b]pyrazin-2-one] | 10 to 100 | 10 to 100 | 238 °C |
| O=C1CNc2ncc(-c3ccc(NS(=O)(=O)CCN4CCOCC4)cc3)cc2N1Cc1cc(F)ccc1F [Example 50, 2-Morpholin-4-yl-ethanesulfonic acid{4-[1-(2,5-difluorobenzyl)-2-oxo-1,2,3,4-tetrahydropyrido[2,3-b]pyrazin-7-yl]phenyl}-amide] | > 100 | 0.1 to 1 | 225 °C |
| O=C1CNc2ncc(I)cc2N1Cc1c(F)ccc(F)c1Cl [Example 3, 1-(2-Chloro-3,6-difluorobenzyl)-7-iodo-3,4-dihydro-1H-pyrido[2,3-b]pyrazin-2-one] | > 100 | 10 to 100 | 237 °C |
| Clc1cccc(Cl)c1CN1CCNc2ncc(I)cc21 [Example 162, 1-(2,6-Dichlorobenzyl)-7-iodo-1,2,3,4-tetrahydropyrido[2,3-b]pyrazine] | 10 to 100 | 1 to 10 | > 200 °C |
| CC1(C)CN(Cc2cc(F)ccc2F)c2cc(I)cnc2N1 [Example 93, 1-(2,5-Difluorobenzyl)-7-iodo-3,3-dimethyl-1,2,3,4-tetrahydropyrido[2,3-b]pyrazine] | > 100 | > 100 | 168 to 169 °C |
| O=S(=O)(c1ccccc1Cl)N1CCNc2ncc(I)cc21 [Example 124, 1-(2-Chlorobenzenesulfonyl)-7-iodo-1,2,3,4-tetrahydropyrido[2,3-b]pyrazine] | 10 to 100 | 1 to 10 | 146 to 147 °C |
| O=C(O)c1ccc(-c2cnc3c(c2)N(Cc2ccccc2OC(F)(F)F)CCN3)cc1 [Example 298, 4-{1-[2-(Trifluoromethoxy)benzyl]-1,2,3,4-tetrahydropyrido[2,3-b]pyrazin-7-yl}benzoic acid] | > 100 | 1 to 10 | 250 °C |
| CN1CCN(c2ccc(-c3cnc4c(c3)NCCN4)cn2)CC1 [Example 109, 7-[6-(4-Methylpiperazin-1-yl)pyridin-3-yl]-1,2,3,4-tetrahydropyrido[2,3-b]pyrazine] | > 100 | 10 to 100 | 225 °C (dec.) |
| CCOC(=O)c1ccc(-c2cnc3c(c2)N(Cc2ccccc2OC(F)(F)F)CCN3)cc1 [Example 297, 4-{1-[2-(Trifluoromethoxy)benzyl]-1,2,3,4-tetrahydropyrido[2,3-b]pyrazin-7-yl}benzoic acid ethyl ester] | > 100 | 1 to 10 | 153 °C |
| CN1CCN(C(=O)c2ccc(-c3cnc4c(c3)N(Cc3cc(F)ccc3F)CCN4)cc2)CC1 [Example 67, {4-[1-(2,5-Difluorobenzyl)-1,2,3,4-tetrahydropyrido[2,3-b]pyrazin-7-yl]phenyl}-(4-methylpiperazin-1-yl)methanone] | 1 to 10 | 0.1 to 1 | 180 °C |
